Assay results reported in PubChem BioAssay AID179 (DTP/NCI, 2004).
Active and inactive are the calls of the source.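 The calls were made as follows: active = compounds giving half or more protection of infected cells from virus-caused growth loss, again on retest; inactive = the rest.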

Tested on: CEM cells HIV-1 protection, formazan growth assay
Assay: NCI AIDS Antiviral Assay
Details: for IC50: measured here: growth of uninfected CEM cells
Outline: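 Category rules: moderately active means at least 50% protection on retest, and confirmed active means 100% protection reproducibly. The underlying data came from a formazan growth assay in HIV-1-infected CEM cells.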

COc1ccccc1N1CCN(CCCNC(=O)c2cc(Cl)c(N)c(Cl)c2)CC1
EC50: > 200 µM | IC50: 89.1 µM

CC1=C([N+](=O)[O-])[C@@H](N2CCOCC2)[C@](C)(N2CCOCC2)S1
outcome: inactive

COc1ccc2[nH]c3c(cnn4cnnc34)c2c1
outcome: inactive

C[N+](C)(C)CC(=O)N/N=C(/Cc1nc2ccc(Cl)cc2[nH]c1=O)C1=NS(=O)(=O)c2cc(S(N)(=O)=O)c(Cl)cc2N1
EC50: > 269 µM | IC50: > 269 µM

CCCC[N+](CCCC)(CCCC)C1=C([O-])C(F)(F)C1=O
EC50: > 200 µM | IC50: > 200 µM

C1=C\C=C\C2OC2/C=C/1 (stereo not drawn)
EC50: > 224 µM | IC50: 112 µM

c1ccc2c3c([nH]c2c1)C1C2CCCCN2C(c2ccncc2)N1CC3 (stereo not drawn)
EC50: > 75.9 µM | IC50: 42.7 µM

O=C1CCC[C@]2(CCCC(=O)N2)C1
outcome: inactive

CCOC(=O)C(NC(=O)CC(C)C)(NC(C)C)C(F)(F)F (stereo not drawn)
EC50: > 200 µM | IC50: > 200 µM

O=c1c(C(c2ccc(Cl)cc2)c2c(O)c3ccccc3n(-c3ccccc3)c2=O)c(O)c2ccccc2n1-c1ccccc1
EC50: > 8.71 µM | IC50: > 8.71 µM

COC(=O)C1=C(C(=O)OC)C2(c3ccccc3)OC1(c1ccccc1)c1cc3ccccc3cc12
outcome: inactive

Cc1ccnc(NS(=O)(=O)c2ccc(NC(=O)Nc3ccc(Cl)c(C(F)(F)F)c3)cc2)n1
outcome: inactive

O=c1[nH]oc(NS(=O)(=O)c2ccccc2)c1C1CCCCC1
EC50: > 200 µM | IC50: 97.7 µM

Cc1cc(NC(=S)NNC(=O)Cn2nnc(-c3cccc(Cl)c3Cl)n2)ccc1Br
EC50: > 200 µM | IC50: 141 µM

CCCCC#COP(=O)(OCC)OCC
EC50: > 251 µM | IC50: > 251 µM

O=C1CCC2c3ccccc3NCN12 (stereo not drawn)
outcome: inactive

COc1ncnc2c1ncn2C1OC(CO)CC1F (stereo not drawn)
EC50: > 186 µM | IC50: > 186 µM

CC(=O)C(N=Nc1ccc(S(=O)(=O)Nc2onc(C)c2C)cc1)C(=O)Nc1cc(C)cc(C)c1 (stereo not drawn)
EC50: > 200 µM | IC50: 30.2 µM

CCCCC(CC)CCC(CCC(CC)CCCC)S(=O)(=O)O (stereo not drawn)
EC50: > 200 µM | IC50: > 200 µM

COc1ccccc1NC(=O)C1=C(C)NC(C)=C(C(=O)Nc2ccccc2OC)C1c1ccccc1OC
EC50: > 19.5 µM | IC50: > 19.5 µM

O=C1C/C(=C/c2ccc(/C=C3/CC(=O)N(c4cccc(Br)c4)C3=O)cc2)C(=O)N1c1cccc(Br)c1
EC50: > 11.2 µM | IC50: > 11.2 µM

CN1C(=O)C2C=CC1C1CCC2N(C)C1=O (stereo not drawn)
outcome: inactive

c1cc2c(s1)-c1sccc1C21OCCO1
EC50: > 200 µM | IC50: 162 µM

COCn1c(C(=O)c2ccc(OC)cc2)cc2ccccc21
EC50: > 33.9 µM | IC50: > 33.9 µM

COc1ccc2c(c1)CCCN2CCCCCCCCCCN(CCC(C)C)CCC(C)C
EC50: > 77.6 µM | IC50: 9.55 µM

CCCCCCCCCCNC(=S)OC
outcome: inactive

CC(C)CNC(=O)CCc1cccc2c1oc1c(CCN)cccc12
EC50: > 200 µM | IC50: 14.8 µM

COc1cc(C2C(Cl)C(=O)N2NC(=O)c2ccccc2O)cc(OC)c1OC (stereo not drawn)
EC50: > 45.7 µM | IC50: 3.98 µM

C[N+](C)(C)CCOP(=O)([O-])OCCNC(=O)c1ccc2ccccc2c1
EC50: > 200 µM | IC50: > 200 µM

N#CCCC(CC#N)S(=O)(=O)O (stereo not drawn)
EC50: > 200 µM | IC50: > 200 µM

CCC12CCCN(Cc3ccccc3)C1c1c(n(C)c3ccccc13)CC2 (stereo not drawn)
EC50: > 66.1 µM | IC50: > 66.1 µM

O=C1c2ccccc2C(=O)N1n1c(Cc2ccccc2)n[nH]c1=O
EC50: > 200 µM | IC50: > 200 µM

CC(=O)OC(C)(C)C1CC[C@]2(C)/C=C/C(C)C[C@@H](O)/C=C(\C)CC(O)C12 (stereo partly drawn)
outcome: inactive

N#CN=C(N)NC(=O)c1ccccc1
outcome: inactive

CC1(C)COC2C(N(Cc3ccccc3)Cc3ccccc3)C(=O)N21 (stereo not drawn)
outcome: inactive

COC(=O)c1ccc2cc(O)c(O)cc2c1
EC50: > 200 µM | IC50: 22.4 µM

CCOP(=O)(OCC)/C(C#N)=C/c1ccc(OC)cc1
EC50: > 316 µM | IC50: > 316 µM

COc1ccc(=O)n(C)n1
EC50: > 1780 µM | IC50: 1450 µM

CC(C)c1cccc(C(C)C)c1N=C(N)C#N
EC50: > 195 µM | IC50: 93.3 µM

Cc1c([N+](=O)[O-])ccc2c1C(=O)c1ccccc1C2=O
EC50: > 200 µM | IC50: 28.2 µM

COC(=O)C12CC(C3CC31)C1CC12 (stereo not drawn)
EC50: > 251 µM | IC50: > 251 µM

O=C1C(Cl)N(c2ccc([N+](=O)[O-])cc2)C1c1c[nH]c2ccccc12 (stereo not drawn)
EC50: > 145 µM | IC50: 18.2 µM

CC(=O)OCC(CC[CH2][Sn]([Cl])([Cl])[c]1ccccc1)OC(C)=O (stereo not drawn)
outcome: inactive

O=c1nc(Oc2c(F)c(F)c(F)c(F)c2F)ccn1C1OC(CO)C(O)C1O (stereo not drawn)
EC50: > 200 µM | IC50: 120 µM

CC(C)N1CC2CN(Cc3ccccc3)CC(C1)C2=O
EC50: > 479 µM | IC50: > 479 µM
